Laboratory results from patent publication US20100011610A1, “FLUIDIZED SPRAY DRYING” (Vertex Pharmaceuticals Incorporated, priority 2006, published 2010).

Assay: in vivo
Conditions: rat, po

bioavailability: < 0.5%
SMILES: CCC[C@H](NC(=O)[C@@H]1[C@H]2CCC[C@H]2CN1C(=O)[C@@H](NC(=O)[C@@H](NC(=O)c1cnccn1)C1CCCCC1)C(C)(C)C)C(=O)C(=O)NC1CC1 [VX-950, Telaprevir]
